Results taken from article PMC9684503 (Communications Biology, 2022).
Values joined by “and” are separate entries in the source; they are usually repeats but may differ in a detail not shown here. Identical values can stand only once. Counter-ions that a name gives are not always drawn. Like-named read-outs stand apart in the source and are kept apart here.

Key:
[1] = target: T1, rat VMAT2-His (Rattus norvegicus, UniProt Q01827); test: Differential scanning fluorimetry (DSF) with CPM dye: change of melting temperature of purified VMAT2; format: binding; details: for ΔTm at 12 µM: compound 0,12 µM; for ΔTm at 37 µM: compound 0,37 µM; for ΔTm at 10 µM: compound 10 µM; for ΔTm at 30 µM: compound 30 µM; for ΔTm at 90 µM: compound 90 µM; for ΔTm at 270 µM: compound 270 µM
T1 construct: The ORF of rat VMAT2 was subcloned into a pFastBac vector; His; made in house; host or cells: Sf9 insect cells (baculovirus)
Experimental: To screen purified VMAT2 by DSF we expressed the rat VMAT2 protein, as VMAT2-His, in SF9 insect cells using the baculovirus expression system. The transporter was solubilized and purified in n-Dodecyl-β-D-maltoside (DDM)/cholesterol hemisuccinate (CHS) micelles by immobilized metal affinity chromatography (IMAC) and size exclusion chromatography (SEC). […] Screening was performed using DSF and the thiol-reactive dye 7-diethylamino-3-(4-maleimidophenyl)-4-methylcoumarin (CPM), an approach that monitors changes to the protein melting temperature (Tm) upon compound binding. Using CPM or other dyes, DSF-based assays have successfully been used in molecular-based screenings[34],[35]. […] DSF screening was performed in 384 well plates using the thiol-sensing dye 7-diethylamino-3-(4-maleimidophenyl)-4-methylcoumarin (CPM) (Merck). […] Protein melting curves were determined using a LightCycler 480 ii RT-PCR system (Roche), with a temperature ramp increasing from 25 to 95 °C at a rate of 2 °C/min. Data analysis was performed using an in-house software that automatically determines the protein midpoint melting temperature (Tm) based on the second derivative of the melting curves or using the HTSDSF explorer as described in ref. [58]. […] 6 μl of this mix was dispensed to each well of 384 well plates using a Multidrop™ Combi Reagent Dispenser (Thermo Scientific). […] All initial hits were then subjected to an initial validation in triplicates with a compound concentration of 200 μM and a ΔTm > 5× the standard deviation (SD) cut off. […] Processing of the data from the primary screening and the concentration-dependent validation was performed as reported.

[2] = target: T2, VMAT2 (Rattus norvegicus, UniProt Q01827); details: 50 µM
Experimental: (§1) We preincubated cells expressing VMAT2 with 50 μM compounds and measured [^3H]-DTBZ binding (5 nM) to the sample (Fig. 3a). […] Hek293 cells were grown and transfected with pcDNA3.1 VMAT2-His as described above. Two days after transfection, cells were harvested, washed and transferred to 96 well MultiScreen FB filter plates (Millipore). […] Cells were washed 3 times with ice cold PBS and 50 µl Ultima Gold LLL (PerkinElmer) was added to each well. […] After a 20 min incubation at 37 °C, cells were washed and [^3H] scintillation counting was performed as described above.

[3] = target: rat VMAT2 (Rattus norvegicus, UniProt Q01827); test: FFN206 uptake assay in transfected Hek293 cells; details: for VMAT2-specific FFN206 uptake relative to DMSO (=1), replicate samples: Fig. 2a source data, 25 μM compound; for inhibition at 25 µM: HEK293, read-out: inhibitory effect on VMAT2 activity
[4] = target: T2, VMAT2; test: [3H]-DTBZ competition assay in Hek293 cells expressing VMAT2; details: 50 μM compound;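 further: HEK293 cells transfected with VMAT2, pretreated 30 min with compound, then given 5 nM [3H]-DTBZ for 20 min at 37 °C, bound label read by scintillation counting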
Experimental: as §1

[5] = system: rat VMAT2 variants; details: cited from earlier work
[6] = Table 1, DSF screening, mean ± SD of triplicates
[7] = Table S2 dose response, read-out: ΔTm
[8] = Table S2 dose response, compound 1,11 µM, read-out: ΔTm
[9] = Table S2 dose response, compound 3,33 µM, read-out: ΔTm

T2 sequence (Q01827 whole entry): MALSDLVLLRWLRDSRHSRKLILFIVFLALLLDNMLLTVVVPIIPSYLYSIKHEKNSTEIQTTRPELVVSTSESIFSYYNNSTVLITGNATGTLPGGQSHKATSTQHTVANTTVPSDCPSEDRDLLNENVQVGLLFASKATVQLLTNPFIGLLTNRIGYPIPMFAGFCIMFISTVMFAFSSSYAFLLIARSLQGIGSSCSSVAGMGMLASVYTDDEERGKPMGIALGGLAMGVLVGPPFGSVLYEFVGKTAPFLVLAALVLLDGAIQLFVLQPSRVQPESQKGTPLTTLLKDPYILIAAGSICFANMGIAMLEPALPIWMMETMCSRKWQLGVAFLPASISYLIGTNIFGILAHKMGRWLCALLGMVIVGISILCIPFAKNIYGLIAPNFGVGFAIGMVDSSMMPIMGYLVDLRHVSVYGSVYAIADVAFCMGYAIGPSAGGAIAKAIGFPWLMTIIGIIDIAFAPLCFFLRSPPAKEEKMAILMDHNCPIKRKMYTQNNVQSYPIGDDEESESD
T1 sequence (Q01827 whole entry): as above
Chain of rat VMAT2 (Q01827 whole entry): as above

Row | Compound | ΔTm [1, 6] | activity ([2]; hek293 cells) | IC50 [3] | effect on [3H]-DTBZ binding compared with DMSO control (one-way ANOVA, p < 0.001) [4] | ΔTm at 12 µM [1, 7] | ΔTm at 37 µM [1, 7] | ΔTm at 10 µM [1, 7] | ΔTm at 30 µM [1, 7] | ΔTm at 90 µM [1, 7] | ΔTm at 270 µM [1, 7] | VMAT2-specific FFN206 uptake relative to DMSO (=1), replicate samples [3] | ΔTm at 11 µM [1, 8] | ΔTm at 33 µM [1, 9] | further results
1 | COc1ccc(CC(C)(C)NC[C@H](O)c2cc(O)cc3c2OCC(=O)N3)cc1 [Olodaterol] | 1.09 ± 0.08 oC | 95.6 ± 18.6% | 4.75 ± 1.36 µM | no statistically significant effect |  |  |  |  |  |  |  |  |  | FFN206 uptake relative to no compound (=1), replicate samples ([3]; Fig. 2b/2c source data, compound 0.0152 μM, listed as Oldaterol): 1.037 and 1.016 and 1.038 and 1.078; FFN206 uptake relative to no compound (=1), replicate samples ([3]; Fig. 2b/2c source data, compound 0.1372 μM, listed as Oldaterol): 1.061 and 1.023 and 1.068 and 1.18; FFN206 uptake relative to no compound (=1), replicate samples ([3]; Fig. 2b/2c source data, compound 0.4115 μM, listed as Oldaterol): 0.9896 and 1.059 and 0.9994 and 0.9917; FFN206 uptake relative to no compound (=1), replicate samples ([3]; Fig. 2b/2c source data, compound 1.2346 μM, listed as Oldaterol): 0.8954 and 0.9111 and 0.8127 and 1.136; FFN206 uptake relative to no compound (=1), replicate samples ([3]; Fig. 2b/2c source data, compound 3.7037 μM, listed as Oldaterol): 0.4411 and 0.5591 and 0.475 and 0.4566; FFN206 uptake relative to no compound (=1), replicate samples ([3]; Fig. 2b/2c source data, compound 11.1111 μM, listed as Oldaterol): 0.3412 and 0.3104 and 0.1707 and 0.3679; FFN206 uptake relative to no compound (=1), replicate samples ([3]; Fig. 2b/2c source data, compound 100.0000 μM, listed as Oldaterol): 0.0752 and 0.06166 and -0.04341 and -0.00625; FFN206 uptake relative to no compound (=1), replicate samples ([3]; Fig. 2c source data, compound 0.0017 μM, listed as Oldaterol): 1.069 and 1.105 and 1.094 and 1.258
2 | COc1ccccc1OCCNCC(O)COc1cccc2[nH]c3ccccc3c12 (centres unmarked) [Carvedilol] | −2.54 ± 0.19 oC | 3.22 ± 3.37% | 0.185 ± 0.157 µM | statistically significantly effect |  |  |  |  |  |  |  |  |  | FFN206 uptake relative to no compound (=1), replicate samples ([3]; Fig. 2b/2c source data, compound 0.0152 μM, listed as Carvediol): 0.766 and 0.8971 and 0.7075 and 0.9947; FFN206 uptake relative to no compound (=1), replicate samples ([3]; Fig. 2b/2c source data, compound 0.1372 μM, listed as Carvediol): 0.4929 and 0.5853 and 0.5773 and 0.7378; FFN206 uptake relative to no compound (=1), replicate samples ([3]; Fig. 2b/2c source data, compound 0.4115 μM, listed as Carvediol): 0.3687 and 0.2376 and 0.3168 and 0.3398; FFN206 uptake relative to no compound (=1), replicate samples ([3]; Fig. 2b/2c source data, compound 1.2346 μM, listed as Carvediol): 0.1087 and 0.07344; FFN206 uptake relative to no compound (=1), replicate samples ([3]; Fig. 2b/2c source data, compound 3.7037 μM, listed as Carvediol): 0.1063 and 0.05759 and 0.1334 and 0.2157; FFN206 uptake relative to no compound (=1), replicate samples ([3]; Fig. 2b/2c source data, compound 11.1111 μM, listed as Carvediol): 0.1084 and -0.01428 and 0.1171 and 0.3099; FFN206 uptake relative to no compound (=1), replicate samples ([3]; Fig. 2b/2c source data, compound 100.0000 μM, listed as Carvediol): -0.01159 and -0.1032 and -0.03855; FFN206 uptake relative to no compound (=1), replicate samples ([3]; Fig. 2c source data, compound 0.0017 μM, listed as Carvediol): 0.7452 and 0.9945 and 0.9725 and 0.9441
3 | [3H]‐tetrabenazine |  |  |  |  |  |  |  |  |  |  |  |  |  | [3H]-tetrabenazine binding [5]: no TBZ binding; [3H]-tetrabenazine binding: reduction [5]: > 90%; [3H]-tetrabenazine binding: reduction in binding [5]: 50%; [3H]-tetrabenazine binding ([5]; variant E313D, ref [3, 4]): no binding
4 | COc1ccc2[nH]c([S+]([O-])Cc3ncc(C)c(OC)c3C)nc2n1 (centres unmarked) [Tenatoprazole] | 7.36 ± 0.41 oC | 87.5 ± 8.53% | > 10 µM | no statistically significant effect | 0.38 °C | 0.24 °C | 4.77 °C | 6.25 °C | 6.56 °C | 6.79 °C | 0.8521 and 0.6659 and 1.063 and 0.8968 | 1.3 °C | 4.85 °C | inhibition at 25 µM [3]: ≤ 50%
5 | COc1ccc(CN2CCN(C(c3ccc(F)cc3)c3ccc(F)cc3)CC2)c(OC)c1OC [Lomerizine, Lomerizine hydrochloride] | −7.51 ± 0.04 oC | 113 ± 23.2% | 3.9 ± 1.69 µM | no statistically significant effect | -0.81 °C | -0.99 °C | -2.21 °C | -1.43 °C | -2.04 °C | -5.36 °C | 0.1198 and 0.07933 and 0.1667 and 0.07626 | -1.46 °C | -1.47 °C | 

Second part, led by results:

Row | ΔTm [1, 6] | activity ([2]; hek293 cells) | IC50 [3] | effect on [3H]-DTBZ binding compared with DMSO control (one-way ANOVA, p < 0.001) [4] | ΔTm at 12 µM [1, 7] | ΔTm at 37 µM [1, 7] | ΔTm at 10 µM [1, 7] | ΔTm at 30 µM [1, 7] | ΔTm at 90 µM [1, 7] | ΔTm at 270 µM [1, 7] | VMAT2-specific FFN206 uptake relative to DMSO (=1), replicate samples [3] | ΔTm at 11 µM [1, 8] | ΔTm at 33 µM [1, 9] | Compound | further results
6 | 1.32 ± 0.22 oC |  |  | no statistically significant effect | 0.2 °C | 0.33 °C | 1.11 °C | 1.6 °C | 0.9 °C | 2.12 °C | 0.4909 and 0.5029 and 0.6058 and 0.5946 |  |  | OC(CCN1CCCCC1)(c1ccccc1)C1CC2C=CC1C2 (centres unmarked) [Biperiden, Biperiden hydrochloride] | ΔTm [1, 8]: 0.45 °C; ΔTm [1, 9]: 0.56 °C; activity [2]: 79.9 ± 19.1%; inhibition at 25 µM [3]: ≤ 50%
7 | −1.26 ± 0.15 oC | 31.6 ± 4.76% | 0.372 ± 0.195 µM | statistically significantly effect |  |  |  |  |  |  |  |  |  | CCc1cc2c(cc1CC)CC(NC[C@H](O)c1ccc(O)c3[nH]c(=O)ccc13)C2 [Indacaterol] | FFN206 uptake relative to no compound (=1), replicate samples ([3]; Fig. 2b/2c source data, compound 0.0152 μM, listed as Indacterol): 1.046 and 0.9873 and 0.9954 and 1.047; FFN206 uptake relative to no compound (=1), replicate samples ([3]; Fig. 2b/2c source data, compound 0.1372 μM, listed as Indacterol): 0.9052 and 0.9503 and 0.5975 and 0.7395; FFN206 uptake relative to no compound (=1), replicate samples ([3]; Fig. 2b/2c source data, compound 0.4115 μM, listed as Indacterol): 0.655 and 0.7802 and 0.5475 and 0.5896; FFN206 uptake relative to no compound (=1), replicate samples ([3]; Fig. 2b/2c source data, compound 1.2346 μM, listed as Indacterol): 0.389 and 0.3824 and 0.2984 and 0.2513; FFN206 uptake relative to no compound (=1), replicate samples ([3]; Fig. 2b/2c source data, compound 3.7037 μM, listed as Indacterol): 0.2198 and 0.2721 and 0.1271 and 0.01615; FFN206 uptake relative to no compound (=1), replicate samples ([3]; Fig. 2b/2c source data, compound 11.1111 μM, listed as Indacterol): 0.3236 and 0.15 and 0.08791 and -0.0508; FFN206 uptake relative to no compound (=1), replicate samples ([3]; Fig. 2b/2c source data, compound 100.0000 μM, listed as Indacterol): 0.1623 and 0.1126 and 0.06583 and 0.01394; FFN206 uptake relative to no compound (=1), replicate samples ([3]; Fig. 2c source data, compound 0.0017 μM, listed as Indacterol): 0.9404 and 1.104 and 0.8827 and 0.8866
8 | 4.98 ± 0.17 oC | 80.2 ± 34.8% |  | no statistically significant effect | 0.62 °C | 0.66 °C | 0.87 °C | 1.05 °C | 1.39 °C | 2.74 °C | 0.09585 and -0.01946 and 0.03446 | 0.71 °C | 0.66 °C | CC(C)n1c(/C=C/C(O)CC(O)CC(=O)O)c(-c2ccc(F)cc2)c2ccccc21 (centres unmarked) [Fluvastatin, Fluvastatin sodium salt] | 
